Source: paper PMC3425516 (PLoS ONE, 2012)
Several values for one entry are separate records, joined by “and”; a condition that tells them apart may be missing. Equal entries are not always repeated.

Columns and labels:
[1] = test system: HCT116 cells; experiment: Western blot caspase 3 and PARP; type: cell-based, human; conditions: 24 h
Procedure: For total lysate, cells were lysed with the 120 µL ice-cold lysis buffer [10 mmol/L Tris-HCl (pH 7.4), 150 mmol/L NaCl, 1 mmol/L EGTA, 1 mmol/L phenylmethylsulfonyl fluoride, 10 µg/mL aprotinin, 10 µg/mL leupeptin, 1 mM sodium orthovandate, 1 mM NaF, and 1% Triton X-100]. Cell lysates were centrifuged at 13,000 rpm for 30 min. […] After 1 h incubation at room temperature in PBS/5% nonfat milk, the membrane was washed with PBS/0.1% and incubated with the indicated antibodies at 4°C overnight. After washings with PBS/0.1% Tween 20, the corresponding secondary antibodies were applied to the membranes for 1 h at room temperature. The membranes were then washed with PBS/0.1% Tween 20 and the detection of signal was done with an enhanced chemiluminescence detection kit (Amersham, Buckinghamshire, UK).

[2] = target: recombinant human HDAC8 (Homo sapiens, UniProt Q9BY41); experiment: biochemical
Sequence of recombinant human HDAC8 (Q9BY41 whole entry): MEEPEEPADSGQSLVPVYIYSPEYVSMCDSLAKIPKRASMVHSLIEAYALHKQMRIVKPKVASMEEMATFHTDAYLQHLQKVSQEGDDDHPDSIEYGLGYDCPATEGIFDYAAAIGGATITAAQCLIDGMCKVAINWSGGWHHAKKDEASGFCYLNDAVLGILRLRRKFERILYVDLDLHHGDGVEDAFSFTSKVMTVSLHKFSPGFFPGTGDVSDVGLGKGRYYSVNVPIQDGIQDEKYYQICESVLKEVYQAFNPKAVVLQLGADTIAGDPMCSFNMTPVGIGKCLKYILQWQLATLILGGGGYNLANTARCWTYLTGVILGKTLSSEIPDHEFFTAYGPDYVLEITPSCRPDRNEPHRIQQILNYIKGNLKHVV
Description: (§3) The HDACs in vitro activities of recombinant human HDAC 1, 2, 4, 6 and 8 (BPS Biosciences) were detected by fluorigenic release of 7-amino-4-methylcoumarin from substrate upon deacetylase enzymatic activity.

[3] = test system: LOX IMVE; experiment: NCI-60 cell lines screening; type: cell-based, human; conditions: Melanoma panel
Procedure: (§1) The NCI-60 cancer cell lines screening was conducted by the NCI’s Developmental Therapeutics Program (DTP; http://www.dtp.nci.nih.gov/branches/btb/ivclsp.html).

[4] = test system: SW-620; experiment: NCI-60 cell lines screening; type: cell-based, human; conditions: SW-620, Colon Cancer panel
Procedure: as §1

[5] = test system: UO-31; experiment: NCI-60 cell lines screening; type: cell-based, human; conditions: UO-31, Renal Cancer panel
Procedure: as §1

[6] = test system: HCC-2998; experiment: NCI-60 cell lines screening; type: cell-based, human; conditions: HCC-2998, Colon Cancer panel
Procedure: as §1

[7] = test system: BT-549; experiment: NCI-60 cell lines screening; type: cell-based, human; conditions: BT-549, Breast Cancer panel
Procedure: as §1

[8] = test system: COLO 205; experiment: NCI-60 cell lines screening; type: cell-based, human; conditions: COLO 205, Colon Cancer panel
Procedure: as §1

[9] = test system: TK-10; experiment: NCI-60 cell lines screening; type: cell-based, human; conditions: TK-10, Renal Cancer panel
Procedure: as §1

[10] = test system: HOP-62; experiment: NCI-60 cell lines screening; type: cell-based, human; conditions: HOP-62, Non-Small Cell Lung Cancer panel
Procedure: as §1

[11] = test system: HDACs in HeLa nuclear extracts; experiment: HeLa nuclear extract HDAC activity assay; type: biochemical
Procedure: The HeLa nuclear extract HDAC activity was measured by using the HDAC Fluorescent Activity Assay Kit (BioVision, CA, USA) according to manufacturer’s instructions. Briefly, the HDAC fluorometric substrate and assay buffer were added to HeLa nuclear extracts in a 96-well format and incubated at 37°C for 30 min. The reaction was stopped by adding lysine developer, and the mixture was incubated for another 30 min at 37°C. Additional negative controls included incubation without the nuclear extract, without the substrate, or without both. TSA at 1 µM served as the positive control.

[12] = test system: HCT116 cells; experiment: Flow cytometry cell cycle / sub-G1 analysis; type: cell-based, human
Procedure: After centrifugation, cells were incubated in 0.1 mol/L phosphate-citric acid buffer [0.2 mol/L NaHPO4, 0.1 mol/L citric acid (pH 7.8)] for 20 min at room temperature. Then, the cells were centrifuged and resuspended with 0.5 mL PI solution containing Triton X-100 (0.1%, v/v), RNase (100 µg/mL), and PI (80 µg/mL). DNA content was analyzed with the FACScan and CellQuest software (Becton Dickinson).

[13] = test system: NCI-ADR cells; experiment: Sulforhodamine B cell growth assay; type: cell-based; conditions: Homo sapiens, NCI/ADR-RES, SRB assay, 48 h
Procedure: (§2) HCT116, MDAMB231 and NCI-ADR cells were seeded in 96-well plates in medium with 5% fetal bovine serum overnight. Cells were fixed with 10% trichloroacetic representing cell population at the time of drug treatment (T 0). […] Excess Sulforhodamine B was washed away by 1% acetic acid and dye-containing cells were lysed with 10 mmol/L Trizma base. […] By measuring time zero (T 0), control growth (C), and cell growth in the presence of the drug (Tx), the percentage growth was calculated. Percentage growth inhibition was calculated as 100-[(Tx–T 0)/(C-T 0)]×100.

[14] = test system: MDAMB231 cells; experiment: Sulforhodamine B cell growth assay; type: cell-based; conditions: Homo sapiens, MDA-MB-231; MDAMB231, SRB assay, 48 h
Procedure: as §2

[15] = test system: HCT116 cells; experiment: Sulforhodamine B cell growth assay; type: cell-based; conditions: Homo sapiens, HCT-116; HCT116, SRB assay, 48 h, mean±S.E.M.; read-out: GI50
Procedure: as §2

[16] = target: recombinant human HDAC6 (Homo sapiens, UniProt Q9UBN7); experiment: biochemical
Sequence of recombinant human HDAC6 (Q9UBN7 whole entry): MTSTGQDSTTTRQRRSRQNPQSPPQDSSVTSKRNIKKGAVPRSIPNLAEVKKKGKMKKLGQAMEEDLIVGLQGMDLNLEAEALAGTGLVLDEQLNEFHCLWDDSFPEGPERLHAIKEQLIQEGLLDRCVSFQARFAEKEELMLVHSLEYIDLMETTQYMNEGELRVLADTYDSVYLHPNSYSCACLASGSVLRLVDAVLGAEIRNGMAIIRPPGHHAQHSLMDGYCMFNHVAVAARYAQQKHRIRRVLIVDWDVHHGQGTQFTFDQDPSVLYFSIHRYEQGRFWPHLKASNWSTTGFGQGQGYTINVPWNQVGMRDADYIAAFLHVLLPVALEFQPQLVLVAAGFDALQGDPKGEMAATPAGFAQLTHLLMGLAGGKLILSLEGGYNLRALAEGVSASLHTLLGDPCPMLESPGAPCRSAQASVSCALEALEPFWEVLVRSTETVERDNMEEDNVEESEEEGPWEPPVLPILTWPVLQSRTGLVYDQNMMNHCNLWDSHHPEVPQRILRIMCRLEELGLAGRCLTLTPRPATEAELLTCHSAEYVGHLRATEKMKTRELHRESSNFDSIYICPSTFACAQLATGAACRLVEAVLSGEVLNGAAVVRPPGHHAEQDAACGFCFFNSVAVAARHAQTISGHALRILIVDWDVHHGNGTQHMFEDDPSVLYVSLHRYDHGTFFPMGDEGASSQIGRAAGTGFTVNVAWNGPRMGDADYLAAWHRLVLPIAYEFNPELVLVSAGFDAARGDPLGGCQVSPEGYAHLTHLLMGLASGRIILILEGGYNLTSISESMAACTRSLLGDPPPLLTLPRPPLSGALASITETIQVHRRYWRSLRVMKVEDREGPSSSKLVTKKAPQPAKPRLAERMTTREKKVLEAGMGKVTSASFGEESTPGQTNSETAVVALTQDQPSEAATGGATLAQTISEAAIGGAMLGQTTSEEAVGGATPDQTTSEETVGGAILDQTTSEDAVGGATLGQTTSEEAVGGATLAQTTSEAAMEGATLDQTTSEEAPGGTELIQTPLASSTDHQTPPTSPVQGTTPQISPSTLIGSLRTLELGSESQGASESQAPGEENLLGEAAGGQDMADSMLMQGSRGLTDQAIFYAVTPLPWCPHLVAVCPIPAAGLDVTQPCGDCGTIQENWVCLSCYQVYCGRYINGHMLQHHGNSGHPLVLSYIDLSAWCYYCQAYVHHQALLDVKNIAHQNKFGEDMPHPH
Description: as §3

[17] = test system: human HCT116 colorectal cancer xenograft; experiment: HCT116 xenograft, tumor growth inhibition after 15 days dosing; type: in vivo, nude mice
Procedure: The human HCT116 colorectal adenocarcinoma cells used for implantation were harvested during log phase growth and resuspended in phosphate-buffered saline at 5×10^7 cells/mL. Each mouse was injected s.c. in the right flank with 1.0×10^7 cells (0.2 mL cell suspension). Tumors were monitored twice weekly and then daily as their volumes approached 1,200 mm^3. Tumor size, in mm^3, was calculated from: where w = width and l = length in mm of the tumor. Tumor volume = (w^2×l)/2.
The tumor growth curves show the group median tumor volume, on a log scale as a function of time.
Once a tumor was palpable with the size of approximately 55 mm^3, mice were randomized into vehicle control and treatment groups (8 mice per group). Control mice received the vehicle (0.5% carboxymethyl cellulose +0.1% Tween 80). Tumors in all 3 groups were allowed to reach an endpoint volume of 1,200 mm^3.

[18] = Homo sapiens, read-out: LC50 (the source's name)

With `O=C(C=Cc1ccc2c(c1)CCN2S(=O)(=O)c1ccccc1)NO` [MPT0E028, 3-(1-benzenesulfonyl-2,3-dihydro-1H-indol-5-yl)-N-hydroxy-acrylamide] the “caspase 3 and PARP activation (western blot)” value [1] was “induced caspase 3 and PARP activation in a concentration-dependent manner”, the IC50 [2] was 2530 ± 315 nM and the GI50 ([3]; Homo sapiens) was 222 nM. It also gave a CC50 [3, 18] of 2880 nM, a TGI [3] of 718 nM and a GI50 ([4]; Homo sapiens) of 147 nM. For the same molecule, the CC50 [4, 18] was > 100000 nM, the TGI [4] was 11200 nM and the GI50 ([5]; Homo sapiens) was 169 nM. It also gave a CC50 [5, 18] of 5630 nM, a TGI [5] of 1460 nM and a TGI [6] of 522 nM. It also gave a GI50 ([6]; Homo sapiens) of 194 nM, a CC50 [6, 18] of 2060 nM and a TGI [7] of 5840 nM. The GI50 ([7]; Homo sapiens) was 680 nM, the CC50 [7, 18] was > 100000 nM and the TGI [8] was 264 nM. The GI50 ([8]; Homo sapiens) was 128 nM, the CC50 [8, 18] was 546 nM and the GI50 ([9]; Homo sapiens) was 103 nM. For the same molecule, the CC50 [9, 18] was 33600 nM, the TGI [9] was 660 nM and the TGI [10] was 1060 nM. The GI50 ([10]; Homo sapiens) was 187 nM, the CC50 [10, 18] was 19200 nM and the “times more potent than SAHA in HDAC activity inhibition” value ([11]; HeLa and HCT116 cells, relative to SAHA) was 9–30 times and 10–30 times. The IC50 ([11]; HeLa nuclear extract) was 11.1 nM, the “sub-G1 population (flow cytometry)” value [12] was “increased the number of cells in the sub-G1 phase of the cell cycle” and the GI50 [13] was 140 ± 20 nM. The GI50 [14] was 190 ± 40 nM, the GI50 [15] was 90 ± 4 nM and the IC50 [16] was 29.5 ± 6.4 nM. For the same molecule, the “percent tumor growth inhibition (%TGI)” value ([17]; 100 mg/kg oral once a day for 15 days) was 32.0% and the “percent tumor growth inhibition (%TGI)” value ([17]; 200 mg/kg oral once a day for 15 days) was 73.5%.
